Results from PMC4076210, “Discovery of Novel AKT Inhibitors with Enhanced Anti-Tumor Effects in Combination with the MEK Inhibitor” (PLoS ONE, 2014).
Read-outs that look alike come from different tables or passages of the source.

What was measured:
IRAK4(h) = biological target: T1, IRAK4(h) (Homo sapiens, UniProt Q9NWZ3); assay: Kinase panel; format: biochemical
T1 construct: purchased Millipore KinaseProfiler
T1 sequence (Q9NWZ3 1-460): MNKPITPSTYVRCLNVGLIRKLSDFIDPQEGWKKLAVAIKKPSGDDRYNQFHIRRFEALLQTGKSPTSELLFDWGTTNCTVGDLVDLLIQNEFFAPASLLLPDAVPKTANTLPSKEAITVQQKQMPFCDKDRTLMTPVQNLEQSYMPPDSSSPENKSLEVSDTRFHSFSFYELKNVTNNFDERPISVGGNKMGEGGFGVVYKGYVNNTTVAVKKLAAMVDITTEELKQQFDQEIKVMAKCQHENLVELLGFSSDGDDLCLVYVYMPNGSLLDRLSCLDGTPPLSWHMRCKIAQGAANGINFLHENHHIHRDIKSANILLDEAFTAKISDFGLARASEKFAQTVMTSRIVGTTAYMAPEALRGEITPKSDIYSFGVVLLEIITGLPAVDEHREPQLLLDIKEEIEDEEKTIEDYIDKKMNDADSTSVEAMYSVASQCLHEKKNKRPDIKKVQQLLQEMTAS

IKKβ(h) = biological target: T2, IKKβ(h) (Homo sapiens, UniProt O14920); assay: Kinase panel; format: biochemical
T2 construct: purchased Millipore KinaseProfiler
T2 sequence (O14920 1-756): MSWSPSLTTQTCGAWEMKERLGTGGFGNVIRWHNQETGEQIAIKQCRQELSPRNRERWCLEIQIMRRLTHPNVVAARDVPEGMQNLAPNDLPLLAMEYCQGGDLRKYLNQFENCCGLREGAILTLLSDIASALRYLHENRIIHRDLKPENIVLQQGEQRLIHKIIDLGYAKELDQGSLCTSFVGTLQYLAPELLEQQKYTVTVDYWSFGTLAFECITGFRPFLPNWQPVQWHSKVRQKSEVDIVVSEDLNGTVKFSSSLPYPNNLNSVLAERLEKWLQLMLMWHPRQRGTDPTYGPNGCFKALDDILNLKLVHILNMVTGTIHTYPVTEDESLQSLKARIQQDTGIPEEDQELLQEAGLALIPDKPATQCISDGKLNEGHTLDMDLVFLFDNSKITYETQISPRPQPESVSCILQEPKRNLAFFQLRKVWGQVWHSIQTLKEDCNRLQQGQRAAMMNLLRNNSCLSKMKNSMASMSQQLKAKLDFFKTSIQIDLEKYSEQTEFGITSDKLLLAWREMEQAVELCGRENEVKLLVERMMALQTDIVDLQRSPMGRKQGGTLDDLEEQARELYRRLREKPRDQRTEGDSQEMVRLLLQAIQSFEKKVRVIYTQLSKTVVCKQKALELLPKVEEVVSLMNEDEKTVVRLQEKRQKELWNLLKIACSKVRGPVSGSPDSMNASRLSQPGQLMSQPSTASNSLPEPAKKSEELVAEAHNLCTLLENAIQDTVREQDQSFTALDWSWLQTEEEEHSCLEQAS

IGF-1R(h) = biological target: T3, IGF-1R(h) (Homo sapiens, UniProt P08069); assay: Kinase panel; format: biochemical
T3 construct: purchased Millipore KinaseProfiler

mTOR(h) = biological target: T4, mTOR(h) (Homo sapiens, UniProt P42345); assay: Kinase panel; format: biochemical
T4 construct: purchased Millipore KinaseProfiler

CDK3/cyclinE(h) = biological target: T5, CDK3/cyclinE(h) (Homo sapiens, UniProt Q00526); assay: Kinase panel; format: biochemical
T5 construct: purchased Millipore KinaseProfiler

CaMKIIγ(h) = biological target: T6, CaMKIIγ(h) (Homo sapiens, UniProt Q13555); assay: Kinase panel; format: biochemical
T6 construct: purchased Millipore KinaseProfiler

STK33(h) = biological target: T7, STK33(h) (Homo sapiens, UniProt Q9BYT3); assay: Kinase panel; format: biochemical
T7 construct: purchased Millipore KinaseProfiler

eEF-2K(h) = biological target: T8, eEF-2K(h) (Homo sapiens, UniProt O00418); assay: Kinase panel; format: biochemical
T8 construct: purchased Millipore KinaseProfiler

pGSK-3β in BT474 = assay: phospho-GSK3β ELISA; format: cell-based; conditions: Homo sapiens, BT-474; BT474, 1 h, mean ± std dev
Procedure: (§1) ELISA plates were prepared by coating with anti-GSK3β antibody (R&D Systems), and blocked with 5% Milk/0.1% Tween-20. Cells were seeded at 25,000 cells/96-well overnight and treated with DMSO or various concentrations of drug for 1 h. Cells were lysed in 20 mM Tris-HCl (pH 8.0), 137 mM NaCl, 2 mM EDTA, 10% glycerol and 1% Triton X-100 and lysates transferred to ELISA plates and incubated overnight. The plates were washed and incubated with rabbit anti-phospho-GSK3β (Ser9) antibody (R&D Systems) for 1 h. After washing, plates were developed using HRP-linked anti-rabbit IgG, and 3,3′,5,5′-tetramethylbenzidine as substrate. Absorption was measured in a microplate spectrophotometer at 450 nm. The phospho-PRAS40 ELISA followed similar methodology as above with the exception of using a commercially available PRAS40 (pThr246) kit (Biosource) and following manufacturers' instructions for the ELISA analysis.

pGSK-3β in LNCaP = assay: phospho-GSK3β ELISA; format: cell-based; conditions: Homo sapiens, 1 h, mean ± std dev
Procedure: as §1

Txk(h) = biological target: T9, Txk(h) (Homo sapiens, UniProt P42681); assay: Kinase panel; format: biochemical
T9 construct: purchased Millipore KinaseProfiler
T9 sequence (P42681 1-527): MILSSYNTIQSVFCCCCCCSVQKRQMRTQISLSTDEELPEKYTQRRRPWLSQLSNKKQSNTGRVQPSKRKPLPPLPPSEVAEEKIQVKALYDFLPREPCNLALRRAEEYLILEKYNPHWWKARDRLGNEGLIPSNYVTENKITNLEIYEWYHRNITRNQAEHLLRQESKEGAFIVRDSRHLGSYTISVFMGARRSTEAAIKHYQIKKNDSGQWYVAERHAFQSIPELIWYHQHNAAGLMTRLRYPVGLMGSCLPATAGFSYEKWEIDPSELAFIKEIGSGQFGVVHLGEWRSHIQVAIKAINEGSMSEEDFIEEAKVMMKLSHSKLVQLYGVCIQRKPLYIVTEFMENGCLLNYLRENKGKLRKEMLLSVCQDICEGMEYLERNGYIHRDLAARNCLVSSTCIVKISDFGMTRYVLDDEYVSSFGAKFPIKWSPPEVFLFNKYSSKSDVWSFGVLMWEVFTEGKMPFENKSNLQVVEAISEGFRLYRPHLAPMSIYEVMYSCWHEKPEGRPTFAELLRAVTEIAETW

SRPK2(h) = biological target: T10, SRPK2(h) (Homo sapiens, UniProt P78362); assay: Kinase panel; format: biochemical
T10 construct: purchased Millipore KinaseProfiler
T10 sequence (P78362 whole entry): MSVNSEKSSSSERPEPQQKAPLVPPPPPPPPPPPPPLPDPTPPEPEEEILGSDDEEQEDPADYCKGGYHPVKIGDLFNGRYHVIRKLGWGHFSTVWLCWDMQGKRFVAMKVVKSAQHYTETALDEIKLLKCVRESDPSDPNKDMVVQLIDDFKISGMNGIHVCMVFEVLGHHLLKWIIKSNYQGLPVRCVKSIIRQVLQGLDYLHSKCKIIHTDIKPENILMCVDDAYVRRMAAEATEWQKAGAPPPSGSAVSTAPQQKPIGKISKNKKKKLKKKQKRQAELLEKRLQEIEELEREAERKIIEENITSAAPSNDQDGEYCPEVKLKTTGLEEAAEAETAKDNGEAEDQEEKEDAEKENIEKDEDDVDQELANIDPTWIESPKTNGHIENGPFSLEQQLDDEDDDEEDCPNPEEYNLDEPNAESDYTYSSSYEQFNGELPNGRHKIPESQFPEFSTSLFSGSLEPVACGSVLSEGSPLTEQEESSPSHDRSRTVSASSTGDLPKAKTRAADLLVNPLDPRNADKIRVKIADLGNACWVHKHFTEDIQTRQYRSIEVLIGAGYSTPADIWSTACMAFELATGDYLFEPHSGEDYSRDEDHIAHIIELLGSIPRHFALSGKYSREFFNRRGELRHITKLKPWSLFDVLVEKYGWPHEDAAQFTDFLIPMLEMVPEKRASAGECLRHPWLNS

T3 sequence (P08069 31-1367): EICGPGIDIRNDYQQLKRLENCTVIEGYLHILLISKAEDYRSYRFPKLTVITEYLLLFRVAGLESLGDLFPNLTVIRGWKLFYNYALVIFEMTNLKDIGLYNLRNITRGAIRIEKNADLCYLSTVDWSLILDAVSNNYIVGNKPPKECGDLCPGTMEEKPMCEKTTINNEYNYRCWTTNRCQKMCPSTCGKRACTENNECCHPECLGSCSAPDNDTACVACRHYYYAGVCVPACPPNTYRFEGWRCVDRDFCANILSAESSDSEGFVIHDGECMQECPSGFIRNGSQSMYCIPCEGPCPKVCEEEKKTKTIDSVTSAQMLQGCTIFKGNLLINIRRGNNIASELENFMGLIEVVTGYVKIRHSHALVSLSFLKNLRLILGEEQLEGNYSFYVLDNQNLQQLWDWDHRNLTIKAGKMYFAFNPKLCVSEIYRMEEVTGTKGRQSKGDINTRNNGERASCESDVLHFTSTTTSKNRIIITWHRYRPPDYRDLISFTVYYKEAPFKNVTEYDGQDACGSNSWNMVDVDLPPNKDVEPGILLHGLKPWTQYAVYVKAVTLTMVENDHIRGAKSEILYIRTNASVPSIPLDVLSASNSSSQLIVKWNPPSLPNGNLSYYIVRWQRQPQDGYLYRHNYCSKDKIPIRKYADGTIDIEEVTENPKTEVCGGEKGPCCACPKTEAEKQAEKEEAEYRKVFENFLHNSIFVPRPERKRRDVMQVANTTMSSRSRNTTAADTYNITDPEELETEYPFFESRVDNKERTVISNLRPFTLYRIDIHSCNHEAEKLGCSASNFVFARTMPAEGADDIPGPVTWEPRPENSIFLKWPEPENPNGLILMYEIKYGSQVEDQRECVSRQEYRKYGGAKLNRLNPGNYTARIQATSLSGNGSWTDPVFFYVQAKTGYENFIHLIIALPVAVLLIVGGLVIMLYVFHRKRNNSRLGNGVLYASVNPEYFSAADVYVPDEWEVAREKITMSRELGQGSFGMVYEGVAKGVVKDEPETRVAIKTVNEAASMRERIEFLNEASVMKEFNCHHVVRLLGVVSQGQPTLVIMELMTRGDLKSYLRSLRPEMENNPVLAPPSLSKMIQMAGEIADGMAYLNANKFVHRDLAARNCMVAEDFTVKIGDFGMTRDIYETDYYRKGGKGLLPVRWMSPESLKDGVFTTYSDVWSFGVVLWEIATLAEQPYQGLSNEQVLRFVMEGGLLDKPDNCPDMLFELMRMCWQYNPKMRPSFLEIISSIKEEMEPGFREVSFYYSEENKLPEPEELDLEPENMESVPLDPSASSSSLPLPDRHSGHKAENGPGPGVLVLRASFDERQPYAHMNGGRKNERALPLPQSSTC
T6 sequence (Q13555 whole entry): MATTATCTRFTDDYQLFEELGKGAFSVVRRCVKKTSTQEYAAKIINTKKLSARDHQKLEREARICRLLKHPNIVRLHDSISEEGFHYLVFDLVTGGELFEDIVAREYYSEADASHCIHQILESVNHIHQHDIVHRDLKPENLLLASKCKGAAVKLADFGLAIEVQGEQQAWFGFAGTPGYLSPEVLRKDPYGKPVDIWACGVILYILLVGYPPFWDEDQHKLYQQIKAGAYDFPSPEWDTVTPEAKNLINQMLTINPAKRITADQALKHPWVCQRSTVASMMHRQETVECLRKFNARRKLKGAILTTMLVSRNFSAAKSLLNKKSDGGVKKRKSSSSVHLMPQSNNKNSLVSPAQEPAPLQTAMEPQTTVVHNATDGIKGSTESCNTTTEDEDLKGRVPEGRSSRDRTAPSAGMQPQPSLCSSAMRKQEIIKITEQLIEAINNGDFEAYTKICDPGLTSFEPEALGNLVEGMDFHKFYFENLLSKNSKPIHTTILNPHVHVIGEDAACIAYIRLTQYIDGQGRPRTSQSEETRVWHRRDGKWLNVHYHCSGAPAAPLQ
T5 sequence (Q00526 whole entry): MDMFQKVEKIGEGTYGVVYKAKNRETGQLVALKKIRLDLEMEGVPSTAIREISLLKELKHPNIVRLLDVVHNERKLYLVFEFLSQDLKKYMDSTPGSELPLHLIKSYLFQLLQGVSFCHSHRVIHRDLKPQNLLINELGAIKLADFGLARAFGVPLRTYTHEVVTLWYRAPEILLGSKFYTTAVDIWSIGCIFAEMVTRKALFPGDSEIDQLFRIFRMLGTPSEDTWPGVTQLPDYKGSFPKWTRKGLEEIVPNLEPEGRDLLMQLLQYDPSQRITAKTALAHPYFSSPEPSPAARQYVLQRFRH
T5 sequence (P24864 whole entry partner): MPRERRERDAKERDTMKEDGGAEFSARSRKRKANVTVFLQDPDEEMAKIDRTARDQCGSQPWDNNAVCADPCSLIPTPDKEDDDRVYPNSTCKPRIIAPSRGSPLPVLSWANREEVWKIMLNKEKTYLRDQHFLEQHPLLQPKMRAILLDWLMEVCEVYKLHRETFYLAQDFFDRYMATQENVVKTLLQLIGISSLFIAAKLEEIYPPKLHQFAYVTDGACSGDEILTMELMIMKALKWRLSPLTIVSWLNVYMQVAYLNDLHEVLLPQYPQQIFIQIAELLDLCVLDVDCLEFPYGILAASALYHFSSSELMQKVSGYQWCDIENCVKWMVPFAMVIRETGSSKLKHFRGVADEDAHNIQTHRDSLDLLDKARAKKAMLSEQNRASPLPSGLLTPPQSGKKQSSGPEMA
T7 sequence (Q9BYT3 whole entry): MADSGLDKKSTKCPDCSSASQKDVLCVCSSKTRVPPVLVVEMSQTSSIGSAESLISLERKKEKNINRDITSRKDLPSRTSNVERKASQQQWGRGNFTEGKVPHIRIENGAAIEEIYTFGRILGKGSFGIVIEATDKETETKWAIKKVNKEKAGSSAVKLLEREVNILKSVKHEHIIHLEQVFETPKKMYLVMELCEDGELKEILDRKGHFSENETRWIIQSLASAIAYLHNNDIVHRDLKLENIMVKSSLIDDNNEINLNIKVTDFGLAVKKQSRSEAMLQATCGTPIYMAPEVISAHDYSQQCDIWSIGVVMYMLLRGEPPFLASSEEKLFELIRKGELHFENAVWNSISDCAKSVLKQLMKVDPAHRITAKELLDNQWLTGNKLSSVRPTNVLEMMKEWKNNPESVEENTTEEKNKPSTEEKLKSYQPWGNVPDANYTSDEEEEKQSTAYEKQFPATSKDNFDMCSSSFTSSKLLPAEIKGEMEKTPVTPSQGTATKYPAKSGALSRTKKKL

Cn1ncc(Cl)c1-c1cc(C(=O)N[C@H](CN)Cc2cccc(F)c2)sc1Cl [GSK2110183]
inhibition at 0.5 µM (IRAK4(h)): -15%
inhibition at 10 µM (IRAK4(h)): -5%
inhibition at 0.5 µM (IKKβ(h)): 5%
inhibition at 10 µM (IKKβ(h)): 18%
inhibition at 0.5 µM (IGF-1R(h)): 7%
inhibition at 10 µM (IGF-1R(h)): 25%
inhibition at 0.5 µM (mTOR(h)): 17%
inhibition at 10 µM (mTOR(h)): -9%
inhibition at 0.5 µM (CDK3/cyclinE(h)): 0%
inhibition at 10 µM (CDK3/cyclinE(h)): 20%
inhibition at 0.5 µM (CaMKIIγ(h)): 39%
inhibition at 10 µM (CaMKIIγ(h)): 89%
inhibition at 0.5 µM (STK33(h)): 56%
inhibition at 10 µM (STK33(h)): 94%
inhibition at 0.5 µM (eEF-2K(h)): -3%
inhibition at 10 µM (eEF-2K(h)): 13%
IC50 (pGSK-3β in BT474): 316 ± 91 nM
IC50 (pGSK-3β in LNCaP): 76 ± 16 nM
inhibition at 0.5 µM (Txk(h)): -9%
inhibition at 10 µM (Txk(h)): 15%
inhibition at 0.5 µM (SRPK2(h)): 26%
inhibition at 10 µM (SRPK2(h)): 37%

Cn1ncc(Cl)c1-c1cc(C(=O)N[C@H](CN)Cc2ccc(F)c(F)c2)oc1Cl [GSK2141795]
inhibition at 0.5 µM (IRAK4(h); 0.5 µM, read-out: % Inhibition): -12%
inhibition at 10 µM (IRAK4(h); 10 µM, read-out: % Inhibition): 0%
inhibition at 0.5 µM (IKKβ(h); 0.5 µM, read-out: % Inhibition): -2%
inhibition at 10 µM (IKKβ(h); 10 µM, read-out: % Inhibition): 13%
inhibition at 0.5 µM (IGF-1R(h); 0.5 µM, read-out: % Inhibition): 6%
inhibition at 10 µM (IGF-1R(h); 10 µM, read-out: % Inhibition): 31%
inhibition at 0.5 µM (mTOR(h); 0.5 µM, read-out: % Inhibition): -16%
inhibition at 10 µM (mTOR(h); 10 µM, read-out: % Inhibition): -4%
inhibition at 0.5 µM (CDK3/cyclinE(h); 0.5 µM, read-out: % Inhibition): -13%
inhibition at 10 µM (CDK3/cyclinE(h); 10 µM, read-out: % Inhibition): 30%
inhibition at 0.5 µM (CaMKIIγ(h); 0.5 µM, read-out: % Inhibition): 48%
inhibition at 10 µM (CaMKIIγ(h); 10 µM, read-out: % Inhibition): 92%
inhibition at 0.5 µM (STK33(h); 0.5 µM, read-out: % Inhibition): 82%
inhibition at 10 µM (STK33(h); 10 µM, read-out: % Inhibition): 77%
inhibition at 0.5 µM (eEF-2K(h); 0.5 µM, read-out: % Inhibition): 4%
inhibition at 10 µM (eEF-2K(h); 10 µM, read-out: % Inhibition): 3%
IC50 (pGSK-3β in BT474): 143 ± 21 nM
IC50 (pGSK-3β in LNCaP): 34 ± 5 nM
inhibition at 0.5 µM (Txk(h); 0.5 µM, read-out: % Inhibition): 11%
inhibition at 10 µM (Txk(h); 10 µM, read-out: % Inhibition): 30%
inhibition at 0.5 µM (SRPK2(h); 0.5 µM, read-out: % Inhibition): 1%
inhibition at 10 µM (SRPK2(h); 10 µM, read-out: % Inhibition): 27%
